The target in test [1] is S. aureus 133 Translation. Nature of the test: S. aureus in vitro transcription-translation assay (firefly luciferase, S30 extract). The test is classed as biochemical. The settings on record: 50% inhibition of the translation of firefly luciferase. An excerpt: In Vitro Transcription-Translation with S. aureus Extracts
Construction of an S. aureus luciferase Reporter Plasmid
In order to construct a reporter plasmid which can be used in an in vitro transcription-translation assay from S. aureus the plasmid pBESTluc (Promega Corporation, USA) is used. The E. coli tac promoter present in this plasmid in front of the firefly luciferase is replaced with the capA1 promoter with appropriate Shine-Dalgarno sequence from S. aureus. The primers CAPFor 5′-CGGCCAAGCTTACTC-[…] […]-3′ and CAPRev 5′-[…]-3′ are used for this. The primer CAPFor contains the capA1 promoter, the ribosome binding site and the 5′ region of the luciferase gene. After PCR using pBESTluc as template it is possible to isolate a PCR product which contains the firefly luciferase gene with the fused capA1 promoter. This is, after restriction with ClaI and HindIII, ligated into the vector pBESTluc which has likewise been digested with ClaI and HindIII. The resulting plasmid p1a can be replicated in E. coli and can be used as template in the S. aureus in vitro transcription-translation test.
Preparation of S30 Extracts from S. aureus
Six litres of BHI medium are inoculated with a 250 ml overnight culture of an S. aureus strain and allowed to grow at 37° C. until the OD600 nm is 2-4. The cells are harvested by centrifugation and washed in 500 ml of cold buffer A (10 mM Tris acetate, pH 8.0, 14 mM magnesium acetate, 1 mM DTT, 1 M KCl). After renewed centrifugation, the cells are washed in 250 ml of cold buffer A with 50 mM KCl, and the resulting pellets are frozen at −20° C. for 60 min. The pellets are thawed on ice in 30 to 60 min and taken up to a total volume of 99 ml in buffer B (10 mM Tris acetate, pH 8.0, 20 mM magnesium acetate, 1 mM DTT, 50 mM KCl). 1.5 ml portions of lysostaphin (0.8 mg/ml) in buffer B are introduced into 3 precooled centrifuge cups and mixed with 33 ml of the cell suspension each. The samples are incubated at 37° C., shaking occasionally, for 45 to 60 min, before 150 μl of a 0.5 M DTT solution are added. The lysed cells are centrifuged at 30 000×g and 4° C. for 30 min. The cell pellet is taken up in buffer B and then centrifuged again under the same conditions, and the collected supernatants are combined. The supernatants are centrifuged again under the same conditions, and 0.25 volumes of buffer C (670 mM Tris acetate, pH 8.0, 20 mM magnesium acetate, 7 mM Na3 phosphoenolpyruvate, 7 mM DTT, 5.5 mM ATP, 70 μM amino acids (complete from Promega), 75 μg of pyruvate kinase (Sigma, Germany))/ml are added to the upper ⅔ of the supernatant. The samples are incubated at 37° C. for 30 min. The supernatants are dialysed against 2 l of dialysis buffer (10 mM Tris acetate, pH 8.0, 14 mM magnesium acetate, 1 mM DTT, 60 mM potassium acetate) in a dialysis tube with a 3500 Da cut-off with one buffer change at 4° C. overnight. The dialysate is concentrated to a protein concentration of about 10 mg/ml by covering the dialysis tube with cold PEG 8000 powder (Sigma, Germany) at 4° C. The S30 extracts can be stored in aliquots at −70° C.
Determination of the IC50 in the S. aureus In Vitro Transcription-Translation Assay
The inhibition of protein biosynthesis of the compounds can be shown in an in vitro transcription-translation assay. The assay is based on the cell-free transcription and translation of firefly luciferase using the reporter plasmid p1a as template and cell-free S30 extracts obtained from S. aureus. The activity of the resulting luciferase can be detected by luminescence measurement.
The amount of S30 extract or plasmid p1a to be employed must be tested anew for each preparation in order to ensure an optimal concentration in the assay. 3 μl of the substance to be tested, dissolved in 5% DMSO, are provided in an MTP. Then […] of a suitably concentrated plasmid solution p1a are added. […]

Another test has as its system S. aureus T17. Kind of test: Minimum inhibitory concentration (MIC), biphenomycin-resistant S. aureus T17. The conditions noted are these: Staphylococcus aureus; biphenomycin-resistant S. aureus T17; read-out: MIC S. aureus T17. The test is classed as cell-based. The method, then:
(§1) Determination of the Minimum Inhibitory Concentration (MIC)
(§2) The minimum inhibitory concentration (MIC) is the minimum concentration of an antibiotic with which the growth of a test microbe is inhibited over 18-24 h. The inhibitor concentration can in these cases be determined by standard microbiological methods (see, for example, The National Committee for Clinical Laboratory Standards. Methods for dilution antimicrobial susceptibility tests for bacteria that grow aerobically; approved standard-fifth edition. NCCLS document M7-A5 [ISBN 1-56238-394-9]. NCCLS, 940 West Valley Road, Suite 1400, Wayne, Pa. 19087-1898 USA, 2000). The MIC of the compounds of the invention is determined in the liquid dilution test on the 96-well microtitre plate scale. The bacterial microbes are cultivated in a minimal medium (18.5 mM Na2HPO4, 5.7 mM KH2PO4, 9.3 mM NH4Cl, 2.8 mM MgSO4, 17.1 mM NaCl, 0.033 μg/ml of thiamine hydrochloride, 1.2 μg/ml of nicotinic acid, 0.003 μg/ml of biotin, 1% glucose, 25 μg/ml of each proteinogenic amino acid with the exception of phenylalanine; [H.-P. Kroll; unpublished]) with addition of 0.4% BH broth (test medium). In the case of Enterococcus faecium L4001, heat-inactivated fetal calf serum (FCS; GibcoBRL, Germany) is added to the test medium in a final concentration of 10%. Overnight cultures of the test microbes are diluted to an OD578 of 0.001 (to 0.01 in the case of enterococci) in fresh test medium, and incubated 1:1 with dilutions of the test substances (1:2 dilution steps) in test medium (200 μl final volume). The cultures are incubated at 37° C. for 18-24 hours; enterococci in the presence of 5% CO2
(§3) The lowest substance concentration in each case at which no visible bacterial growth occurs any more is defined as the MIC.
(§4) Alternative Method for Determining the Minimum Inhibitory Concentration (MIC)
(§5) The minimum inhibitory concentration (MIC) is the minimum concentration of an antibiotic with which the growth of a test microbe is inhibited over 18-24 h. The inhibitor concentration can in these cases be determined by standard microbiological methods with modified medium in an agar dilution test (see, for example, The National Committee for Clinical Laboratory Standards. Methods for dilution antimicrobial susceptibility tests for bacteria that grow aerobically; approved standard-fifth edition. NCCLS document M7-A5 [ISBN 1-56238-394-9]. NCCLS, 940 West Valley Road, Suite 1400, Wayne, Pa. 19087-1898 USA, 2000). The bacterial microbes are cultivated on 1.5% agar plates which contain 20% defibrinated horse blood. The test microbes, which are incubated overnight on Columbia blood agar plates (Becton-Dickinson), are diluted in PBS, adjusted to a microbe count of about 5×10^5 microbes/ml and placed dropwise (1-3 μl) on test plates. The test substances comprise different dilutions of the test substances (1:2 dilution steps). The cultures are incubated at 37° C. in the presence of 5% CO2 for 18-24 hours.
(§6) The lowest substance concentration in each case at which no visible bacterial growth occurred any more is defined as the MIC and is reported in μg/ml.
The S. aureus strain T17 is isolated in vivo. CFW1 mice are infected intraperitoneally with 4×10^7 S. aureus 133 cells per mouse. 0.5 h after the infection, the animals are treated intravenously with 50 mg/kg biphenomycin B. The kidneys are removed from the surviving animals on day 3 after the infection. After homogenization of the organs, the homogenates are plated out as described for RN4220Bi^R on antibiotic-free and antibiotic-containing agar plates and incubated at 37° C. overnight. […] About 20 of these colonies are tested for the biphenomycin B MIC, and a colony with a MIC of >50 μM is selected for further cultivation, and the strain is referred to as T17.

Test [2] deals with S. aureus 133. Kind of test: Minimum inhibitory concentration (MIC), S. aureus 133. The test is classed as cell-based. The method, then:
as §1, §2, §3, §4, §5, §6

For test [3], the system named is Enterococcus faecium L4001. Kind of test: Minimum inhibitory concentration (MIC), E. faecium L4001. The test is classed as cell-based. The conditions noted are these: Enterococcus faecium. The protocol: as §1, §2, §3, §4, §5, §6
Test [4] relates to S. aureus 133. Kind of test: Systemic infection with S. aureus 133 (mouse sepsis model). The test is classed as in vivo, mouse (female CFW1). The settings on record: i.p. infection, i.v. therapy 30 minutes after infection, survival recorded for 6 days. The protocol:
Systemic Infection with S. aureus 133
The suitability of the compounds of the invention for the treatment of bacterial infections can be shown in various animal models. For this purpose, the animals are generally infected with a suitable virulent microbe and then treated with the compound to be tested, which is present in a formulation which is adapted to the particular therapy model.
For this purpose, S. aureus 133 cells are cultured overnight in BH broth (Oxoid, Germany). The overnight culture was diluted 1:100 in fresh BH broth and expanded for 3 hours. The bacteria which are in the logarithmic phase of growth are centrifuged and washed twice with buffered physiological saline solution. A cell suspension in saline solution with an extinction of 50 units is then adjusted in a photometer (Dr Lange LP 2W). After a dilution step (1:15), this suspension is mixed 1:1 with a 10% mucine suspension. 0.2 ml of this infection solution is administered i.p. per 20 g of mouse. This corresponds to a cell count of about 1-2×10^6 microbes/mouse. The i.v. therapy takes place 30 minutes after the infection. Female CFW1 mice are used for the infection experiment. The survival of the animals is recorded for 6 days. The animal model is adjusted so that untreated animals die within 24 h after the infection.

[5] abbreviates: Staphylococcus aureus, 133; read-out: MIC S. aureus 133.
The mark [6] stands for this setting: E. faecium L4001, test medium with 10% FCS, read-out: MIC E. faecium L4001.
Where [7] appears, read: Staphylococcus aureus, 133, read-out: MIC S. aureus 133.
Setting [8] is: L4001, read-out: MIC E. faecium L4001.

The results in this text go back to US20080300231A1, “Antibacterial amide macrocycles VI” (priority 2005, published 2008).

In brackets after ≈: the same amount, converted by molar mass. Structures can show the parent of a compound that is named as a salt. Where two headings read alike, the source gives them in different places.

Consider `NCCC[C@@H]1NC(=O)[C@@H](N)Cc2cc(ccc2O)-c2ccc(O)c(c2)C[C@@H](C(=O)N(CCN)CC(O)CN)NC1=O` (stereo partly drawn) [Example 8], for which the IC50 – broadly, the concentration that inhibits the measured activity by half – in test [1] came out at 250 nM. Besides, the MIC (usually the lowest concentration found to suppress growth) amounted to 4 µg/mL (≈ 7 µM) with S. aureus T17, 1 µg/mL (≈ 1.75 µM) in the test on S. aureus 133 [2] (setting [5]) and 16 µg/mL (≈ 28 µM) in test [3] (setting [6]).
`CNCCN(CCN)C(=O)[C@@H]1Cc2cc(ccc2O)-c2ccc(O)c(c2)C[C@H](N)C(=O)N[C@@H](CCCN)C(=O)N1` [Example 3, (8S,11S,14S)-14-Amino-N-(2-aminoethyl)-11-(3-aminopropyl)-5,17-dihydroxy-N-[2-(methylamino)ethyl]-10,13-dioxo-9,12-diazatricyclo[14.3.1.1^2,6]henicosa-1(20),2(21),3,5,16,18-hexaene-8-carboxamide tetrahydrochloride]: in test [1], the IC50 is 800 nM. Also, the MIC with S. aureus T17 came to 4 µg/mL; in the test with S. aureus 133 [2] (setting [7]) it was 2 µg/mL; in test [3] (setting [8]), 8 µg/mL.
Compound `NCCC[C@@H]1NC(=O)[C@@H](N)Cc2cc(ccc2O)-c2ccc(O)c(c2)C[C@@H](C(=O)N2CCC[C@H]2C(=O)N[C@@H](CCCN)C(=O)NCCN)NC1=O` [Example 1, 1-{[(8S,11S,14S)-14-Amino-11-(3-aminopropyl)-5,17-dihydroxy-10,13-dioxo-9,12-diazatricyclo[14.3.1.1^2,6]henicosa-1(20),2(21),3,5,16,18-hexaen-8-yl]carbonyl}-L-prolyl-N-(2-aminoethyl)-L-ornithinamide tetrahydrochloride] came in with an IC50 in test [1] of 700 nM. For the same compound, the results for the MIC (with S. aureus T17; in the test on S. aureus 133 [2] (setting [7]); in test [3] (setting [8])) were 4 µg/mL, 1 µg/mL and 2 µg/mL, respectively.
Compound `NCCC[C@@H]1NC(=O)[C@@H](N)Cc2cc(ccc2O)-c2ccc(O)c(c2)C[C@@H](C(=O)N(CCN)CC2CCCCN2)NC1=O` (stereo partly drawn) [Example 9] came in with an IC50 in test [1] of 330 nM. Also, the MIC was found to be 2 µg/mL (≈ 3.36 µM) in the test on S. aureus T17, 4 µg/mL (≈ 6.71 µM) in the test on S. aureus 133 [2] (setting [5]) and 32 µg/mL (≈ 53.7 µM) in test [3] (setting [6]).
As to `NCCC[C@@H]1NC(=O)[C@@H](N)Cc2cc(ccc2O)-c2ccc(O)c(c2)C[C@@H](C(=O)N2CCC[C@H]2C(=O)N[C@@H](CCCN)C(=O)NCCN)NC1=O.O=C(O)C(F)(F)F.O=C(O)C(F)(F)F.O=C(O)C(F)(F)F.O=C(O)C(F)(F)F` [Example 2, 1-{[(8S,11S,14S)-14-Amino-11-(3-aminopropyl)-5,17-dihydroxy-10,13-dioxo-9,12-diazatricyclo[14.3.1.1^2,6]henicosa-1(20),2(21),3,5,16,18-hexaen-8-yl]carbonyl}-L-prolyl-N-(2-aminoethyl)-L-ornithinamide tetra(hydrotrifluoroacetate)], the “ED100 (therapeutic effect)” value in the test on S. aureus 133 [4] is 1.25 mg/kg.
The compound `NCCC[C@@H]1NC(=O)[C@@H](N)Cc2cc(ccc2O)-c2ccc(O)c(c2)C[C@@H](C(=O)N(CCN)CCO)NC1=O` [Example 6] yielded an IC50 in test [1] of 700 nM. For the same compound, the MIC came to 4 µg/mL (≈ 7.37 µM) in the test on S. aureus T17, 2 µg/mL (≈ 3.69 µM) in the test on S. aureus 133 [2] (setting [5]) and 4 µg/mL (≈ 7.37 µM) in test [3] (setting [6]).
